Measurements: the NIST ThermoML archive (doi:10.1016/j.jct.2017.07.004)

Test: xn = mol fraction of the nth substance listed
Details: 100 kPa, Liquid; for viscosity: Concentric cylinders viscometry; for mass density: Vibrating tube method

CCC=O [propanal] + CCCC(C)O
Details | mass density [kg/m3] | viscosity [mPa·s]
293.15 K, x1 = 0.0809 | 811 | 3.75
293.15 K, x1 = 0.1599 | 813.1 | 3.51
293.15 K, x1 = 0.2402 | 814.7 | 3.25
293.15 K, x1 = 0.35 | 816.4 | 2.87
293.15 K, x1 = 0.44 | 817 | 2.54
293.15 K, x1 = 0.5599 | 816.7 | 2.08
293.15 K, x1 = 0.65 | 815.8 | 1.73
293.15 K, x1 = 0.74 | 814.1 | 1.38
293.15 K, x1 = 0.85 | 810.6 | 0.94
293.15 K, x1 = 0.94 | 806.5 | 0.57
293.15 K, x1 = 1 | 802.4 | 0.34
298.15 K, x1 = 0.0809 | 806.6 | 3.11
298.15 K, x1 = 0.1599 | 808 | 2.91
298.15 K, x1 = 0.2402 | 809.2 | 2.71
298.15 K, x1 = 0.35 | 809.9 | 2.42
298.15 K, x1 = 0.44 | 810.2 | 2.15
298.15 K, x1 = 0.5599 | 809.5 | 1.78
298.15 K, x1 = 0.65 | 808.4 | 1.49
298.15 K, x1 = 0.74 | 806.6 | 1.2
298.15 K, x1 = 0.85 | 803.4 | 0.83
298.15 K, x1 = 0.94 | 799.8 | 0.52
298.15 K, x1 = 1 | 796.2 | 0.33
303.15 K, x1 = 0.0809 | 802.1 | 2.64
303.15 K, x1 = 0.1599 | 803.2 | 2.47
303.15 K, x1 = 0.2402 | 804 | 2.29
303.15 K, x1 = 0.35 | 804.5 | 2.04
303.15 K, x1 = 0.44 | 804.4 | 1.82
303.15 K, x1 = 0.5599 | 803.5 | 1.52
303.15 K, x1 = 0.65 | 802.2 | 1.29
303.15 K, x1 = 0.74 | 800.4 | 1.04
303.15 K, x1 = 0.85 | 797.1 | 0.73
303.15 K, x1 = 0.94 | 793.6 | 0.47
303.15 K, x1 = 1 | 790.3 | 0.31
308.15 K, x1 = 0.0809 | 797.7 | 2.24
308.15 K, x1 = 0.1599 | 798.5 | 2.11
308.15 K, x1 = 0.2402 | 798.9 | 1.96
308.15 K, x1 = 0.35 | 799 | 1.74
308.15 K, x1 = 0.44 | 798.7 | 1.55
308.15 K, x1 = 0.5599 | 797.5 | 1.29
308.15 K, x1 = 0.65 | 796.1 | 1.1
308.15 K, x1 = 0.74 | 794.2 | 0.89
308.15 K, x1 = 0.85 | 791 | 0.64
308.15 K, x1 = 0.94 | 787.6 | 0.43
308.15 K, x1 = 1 | 784.5 | 0.3
313.15 K, x1 = 0.0809 | 793.1 | 1.88
313.15 K, x1 = 0.1599 | 793.6 | 1.76
313.15 K, x1 = 0.2402 | 793.9 | 1.63
313.15 K, x1 = 0.35 | 793.8 | 1.45
313.15 K, x1 = 0.44 | 793.3 | 1.3
313.15 K, x1 = 0.5599 | 792 | 1.09
313.15 K, x1 = 0.65 | 790.5 | 0.92
313.15 K, x1 = 0.74 | 788.5 | 0.75
313.15 K, x1 = 0.85 | 785.3 | 0.56
313.15 K, x1 = 0.94 | 781.9 | 0.39
313.15 K, x1 = 1 | 779 | 0.28
318.15 K, x1 = 0.0809 | 788.6 | 1.55
318.15 K, x1 = 0.1599 | 788.9 | 1.45
318.15 K, x1 = 0.2402 | 789 | 1.34
318.15 K, x1 = 0.35 | 788.7 | 1.19
318.15 K, x1 = 0.44 | 788.1 | 1.07
318.15 K, x1 = 0.5599 | 786.5 | 0.9
318.15 K, x1 = 0.65 | 785 | 0.77
318.15 K, x1 = 0.74 | 782.9 | 0.64
318.15 K, x1 = 0.85 | 779.6 | 0.49
318.15 K, x1 = 0.94 | 776.2 | 0.35
318.15 K, x1 = 1 | 773.5 | 0.27
323.15 K, x1 = 0.0809 | 783.9 | 1.29
323.15 K, x1 = 0.1599 | 783.9 | 1.2
323.15 K, x1 = 0.2402 | 783.5 | 1.1
323.15 K, x1 = 0.35 | 782.7 | 0.97
323.15 K, x1 = 0.44 | 781.8 | 0.87
323.15 K, x1 = 0.5599 | 780.1 | 0.74
323.15 K, x1 = 0.65 | 778.4 | 0.64
323.15 K, x1 = 0.74 | 776.4 | 0.54
323.15 K, x1 = 0.85 | 773.4 | 0.42
323.15 K, x1 = 0.94 | 770.6 | 0.32
323.15 K, x1 = 1 | 768.2 | 0.25
